Results as given in the supplement of paper PMC10307832.

Columns and labels:
Experiment in all cases: relative viability (nuclei count vs DMSO), 5 days (fraction); higher = more cells survive
[1] = compound: COc1cc(-c2nn([C@H]3CC[C@H](N4CCN(C(C)=O)CC4)CC3)c3ncnc(N)c23)ccc1NC(=O)c1cc2ccccc2n1C + CS(=O)(=O)CCNCc1ccc(-c2ccc3ncnc(Nc4ccc(OCc5cccc(F)c5)c(Cl)c4)c3c2)o1 [Lapatinib] (partner 2 µM)
How it was run: (§1)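 A single step with final 0.05% Triton X-100, 1% formaldehyde and 1 ug/ml Hoechst fixed the cells and stained nuclei 5 days after treatment. Lung cancer cell lines in 1536-well plates had been treated by pin tool the day after seeding with one drug alone or a fixed anchor-drug dose plus five library-drug doses (not always all listed) in √10 steps, and nuclei were counted on 4× images. Relative viability is the ratio of nuclei in treated wells to nuclei in vehicle wells, taken as the median of duplicate plates.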

[2] = compound: COc1cc(-c2nn([C@H]3CC[C@H](N4CCN(C(C)=O)CC4)CC3)c3ncnc(N)c23)ccc1NC(=O)c1cc2ccccc2n1C + CC(C)C[C@H](NC(=O)[C@H](Cc1ccccc1)NC(=O)c1cnccn1)B(O)O [Bortezomib] (partner 0.002 µM)
How it was run: as §1

[3] = compound: COc1cc(-c2nn([C@H]3CC[C@H](N4CCN(C(C)=O)CC4)CC3)c3ncnc(N)c23)ccc1NC(=O)c1cc2ccccc2n1C + CC(=O)c1c(C)c2cnc(Nc3ccc(N4CCNCC4)cn3)nc2n(C2CCCC2)c1=O [Palbociclib] (partner 0.5 µM)
How it was run: as §1

[4] = compound: CO[C@@H]1[C@H](N(C)C(=O)c2ccccc2)C[C@H]2O[C@]1(C)n1c3ccccc3c3c4c(c5c6ccccc6n2c5c31)C(=O)NC4 [Midostaurin] + COc1cccc2cc(-c3nc([C@H]4CC[C@H](C(=O)O)CC4)n4ncnc(N)c34)[nH]c12 [OSI-027] (partner 0.5 µM)
How it was run: as §1

[5] = compound: COc1cc(-c2nn([C@H]3CC[C@H](N4CCN(C(C)=O)CC4)CC3)c3ncnc(N)c23)ccc1NC(=O)c1cc2ccccc2n1C + NC(=O)Nc1cc(-c2cccc(F)c2)sc1C(=O)N[C@H]1CCCNC1 [AZD7762] (partner 0.2 µM)
How it was run: as §1

Row | Cell Line | relative viability ([1]; first compound 0.0128 µM) | relative viability ([1]; first compound 0.04048 µM) | relative viability ([1]; first compound 0.128 µM) | relative viability ([1]; first compound 1.28 µM) | relative viability ([2]; first compound 0.0128 µM) | relative viability ([2]; first compound 0.04048 µM) | relative viability ([2]; first compound 0.128 µM) | relative viability ([2]; first compound 1.28 µM) | relative viability ([3]; first compound 0.0128 µM) | relative viability ([3]; first compound 0.04048 µM) | relative viability ([3]; first compound 0.128 µM) | relative viability ([3]; first compound 1.28 µM) | relative viability ([4]; first compound 0.01 µM) | relative viability ([4]; first compound 0.03162 µM) | relative viability ([4]; first compound 0.1 µM) | relative viability ([4]; first compound 0.3162 µM) | relative viability ([5]; first compound 0.0128 µM) | relative viability ([5]; first compound 0.04048 µM) | relative viability ([5]; first compound 0.128 µM) | relative viability ([5]; first compound 1.28 µM)
1 | NCI-H2347 | 1.1 | 0.874 | 0.927 | 1.05 | 0.82 | 1.07 | 1.15 | 0.697 | 0.461 | 0.43 | 0.392 | 0.416 | 0.453 | 0.35 | 0.365 | 0.38 | 0.773 | 0.55 | 0.64 | 0.565
2 | NCI-H1993 | 0.853 | 0.811 | 0.807 | 0.812 | 1.2 | 1.09 | 1 | 0.956 | 0.616 | 0.58 | 0.617 | 0.605 | 0.519 | 0.546 | 0.54 | 0.576 | 0.823 | 0.549 | 0.715 | 0.752
3 | NCI-H322M | 0.627 | 0.679 | 0.621 | 0.474 | 1.23 | 1.52 | 1.17 | 1.17 | 0.426 | 0.516 | 0.434 | 0.394 | 0.633 | 0.489 | 0.595 | 0.569 | 0.496 | 0.599 | 0.536 | 0.444
4 | NCI-H838 | 1.06 | 1.02 | 0.913 | 0.629 | 1.18 | 0.817 | 0.578 | 0.628 | 0.222 | 0.208 | 0.216 | 0.181 | 0.481 | 0.394 | 0.382 | 0.349 | 1 | 0.921 | 0.91 | 0.75
5 | HARA | 0.888 | 0.858 | 0.563 | 0.813 | 1.12 | 1.16 | 1.1 | 0.803 | 0.268 | 0.241 | 0.246 | 0.185 | 0.672 | 0.4 | 0.516 | 0.757 | 0.257 | 0.432 | 0.124 | 0.281
6 | NCI-H2087 | 1.05 | 0.659 | 0.93 | 1.17 | 0.855 | 0.772 | 0.869 | 0.991 | 0.244 | – | 0.237 | 0.222 | 0.567 | 0.491 | 0.573 | 0.554 | 1.31 | – | 1.18 | 1.08
7 | NCI-H1437 | 0.901 | 0.91 | 0.77 | 0.764 | 0.587 | 0.522 | 0.365 | 0.585 | 0.302 | 0.326 | 0.281 | 0.283 | 0.816 | 0.895 | 0.853 | 0.933 | 1.14 | 1.15 | 1.04 | 0.96
8 | ChaGo-K-1 | – | – | – | – | 0.922 | 1.13 | 0.865 | 0.973 | 0.925 | 0.985 | 0.873 | 0.668 | 0.645 | 0.737 | 0.671 | 0.599 | 0.829 | 0.779 | 0.818 | 0.72
9 | LK-2 | 1.09 | 0.981 | 0.83 | 0.777 | – | – | – | – | 0.698 | 0.858 | 0.834 | 0.518 | 0.232 | 0.232 | 0.248 | 0.197 | 0.485 | 0.243 | 0.321 | 0.188
10 | NCI-H596 | 0.933 | 1.2 | 0.933 | 0.842 | 1.03 | 1.31 | 0.908 | 0.954 | – | – | – | – | 0.727 | 0.774 | 0.598 | 0.904 | 1.55 | 1.15 | 1.09 | 0.851
11 | NCI-H1944 | 0.944 | 0.95 | 0.777 | 0.69 | – | – | – | – | 0.352 | 0.32 | 0.363 | 0.203 | 0.385 | 0.399 | 0.416 | 0.411 | 0.605 | 0.539 | 0.485 | 0.352
12 | NCI-H1793 | 1.01 | 0.501 | 0.434 | 0.621 | – | – | – | – | 0.367 | 0.342 | 0.261 | 0.239 | 0.319 | 0.287 | 0.263 | 0.216 | 0.591 | 0.341 | 0.326 | 0.192
13 | NCI-H358 | 0.455 | 0.391 | 0.335 | 0.27 | – | – | – | – | 0.145 | 0.137 | 0.126 | 0.115 | 0.894 | 0.73 | 0.788 | 0.776 | 0.496 | 0.5 | 0.444 | 0.225
14 | NCI-H1395 | 0.939 | 1.09 | 0.881 | 0.782 | – | – | – | – | 0.656 | 0.647 | 0.589 | 0.497 | 0.591 | 0.675 | 0.615 | 0.763 | 0.459 | 0.394 | 0.402 | 0.322
15 | NCI-H1703 | 1.09 | 0.988 | 0.842 | 0.352 | 0.286 | 0.45 | 0.298 | 0.235 | – | – | – | – | – | – | – | – | 0.138 | 0.114 | 0.129 | 0.117
16 | NCI-H441 | – | – | – | – | 0.591 | 0.823 | 0.665 | 0.616 | 0.248 | 0.167 | 0.228 | 0.152 | 0.629 | 0.525 | 0.405 | 0.529 | 1.21 | 1.01 | 1.12 | 0.717
17 | LCLC-103H | – | – | – | – | 1.16 | 1.13 | 1.15 | 0.99 | 0.509 | 0.474 | 0.433 | 0.503 | 0.506 | 0.417 | 0.425 | 0.465 | 0.828 | 0.787 | 0.759 | 0.703
